The source of these data is ChEMBL document CHEMBL1130644, “Synthesis of C-ring aromatic taxoids and evaluation of their multi-drug resistance reversing activity” (1998).

The structures appear in SMILES notation.

Common to all, as to type: functional, Homo sapiens
Assay [1] can be described thus: Compound was evaluated for enhancing effect on vincristine accumulation in ovarian MDR cancer cells (2780AD) at concentration of 1.0 ug/mL.
Assay [2] in a line: Compound was evaluated for enhancing effect on vincristine accumulation in ovarian MDR cancer cells (2780AD) at concentration of 10 ug/mL.
The nature of assay [3]: 62 Compound was evaluated for enhancing effect on vincristine accumulation in ovarian MDR cancer cells (2780AD) at concentration of 1.0 ug/mL.

Turning to `CC1=C2[C@@H](Sc3ccccc3)[C@H](OCCO)c3cccc(O)c3[C@H](OCc3ccccc3)[C@](O)(CC1=O)C2(C)C`, the Activity in assay [1] is recorded as 238%; in assay [2], 569%.

Take `COc1cccc2c1[C@H](O)[C@]1(O)CC(=O)C(C)=C([C@@H](Sc3ccccc3)[C@@H]2OCCO)C1(C)C`: the figures for the Activity in assay [1] and in assay [2] were 112% and 171%, respectively.

Regarding `COc1cccc2c1[C@H](O)[C@]1(O)CC(=O)C(C)=C(C[C@@H]2OCCO)C1(C)C`, the values for the Activity in assay [1] and in assay [2] were 111% and 124%, respectively.

`COc1cccc2c1[C@H](O)[C@]1(O)CC(=O)C(C)=C([C@@H](Sc3ccccc3)[C@@H]2OCCOCc2ccccc2)C1(C)C`: the results for the Activity in assay [1] and in assay [2] were 140% and 256%, respectively.

On to `COc1cccc2c1[C@H](O)[C@]1(O)CC(O)C(C)=C([C@@H](Sc3ccccc3)[C@@H]2OCCO)C1(C)C` (stereo partly specified), for which the Activity in assay [3] was 109%; in assay [2], 144%.

For `COc1cccc2c1[C@H](O)[C@]1(O)CC(=O)C(C)=C([C@@H](Sc3ccccc3)[C@@H]2OCCBr)C1(C)C`, the results for the Activity in assay [1] and in assay [2] were 93% and 166%, respectively.

As to `COc1cccc2c1[C@H](OCc1ccccc1)[C@]1(O)CC(=O)C(C)=C([C@@H](Sc3ccccc3)[C@@H]2OCCOCc2ccccc2)C1(C)C`, the Activity in assay [1] worked out at 106%; in assay [2], 211%.

Consider `CC1=C2[C@@H](Sc3ccccc3)[C@H](OCCOCc3ccccc3)c3cccc(O)c3[C@H](OCc3ccccc3)[C@](O)(CC1=O)C2(C)C`, for which the Activity in assay [1] was found to be 106%; in assay [2] it was 142%.
